Assay results as given in patent publication US10508077B2 (FORMA Therapeutics, Inc., priority 2015, dated 2019).

Biological target: T1, Full length human recombinant HDAC8 protein (Homo sapiens, UniProt Q9BY41)
T1 construct: Full length human recombinant HDAC8 protein was expressed in baculoviral system; made in house
T1 sequence (Q9BY41 1-377): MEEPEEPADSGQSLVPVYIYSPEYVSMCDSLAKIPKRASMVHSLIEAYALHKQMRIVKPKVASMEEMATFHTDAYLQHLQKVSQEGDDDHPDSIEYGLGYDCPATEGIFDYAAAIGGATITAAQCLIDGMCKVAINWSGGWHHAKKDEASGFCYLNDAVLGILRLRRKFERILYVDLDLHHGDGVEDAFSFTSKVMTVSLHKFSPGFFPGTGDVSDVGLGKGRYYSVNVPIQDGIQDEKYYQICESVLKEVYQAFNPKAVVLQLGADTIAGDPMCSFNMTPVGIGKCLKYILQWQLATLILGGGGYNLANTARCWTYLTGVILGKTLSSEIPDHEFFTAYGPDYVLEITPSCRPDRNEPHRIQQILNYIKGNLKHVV
Experiment: In vitro histone deacetylase assay: enzymatic HDAC8 assay, electrophoretic mobility shift
Format: biochemical
Conditions: substrate RHKK(Ac)-NH2, 1 nM enzyme, compounds listed under IC50 range headings
Method: The enzymatic HDAC8 assay was performed using electrophoretic mobility shift assay. Full length human recombinant HDAC8 protein was expressed in baculoviral system and purified by affinity chromatography. The enzymatic reactions were assembled in 384 well plates in a total volume of 25 μL in a reaction buffer composing: 100 mM HEPES, pH7.5, 25 mM KC, 0.1% bovine serum albumin, 0.01% Triton X-100, 1% DMSO (from compounds) 2 μM of the fluorescently labeled peptide substrate and enzyme. The enzyme was added at a final concentration of 1 nM. The peptide substrate RHKK(Ac)-NH2 was used. The compounds were tested at 12 concentrations spaced by 3× dilution intervals. Negative control samples (0%-inhibition in the absence of inhibitor) and positive control samples (100%-inhibition) were assembled in replicates of four in each assay plate. The reactions were incubated at 25° C. and quenched by the addition of 45 μL of termination buffer (100 mM HEPES, pH 7.5, 0.01% Triton X-100, 0.05% SDS).
The terminated assay plates were analyzed on LabChip® 3000 microfluidic electrophoresis instrument (Perkin Elmer/Caliper Life Sciences). The fluorescence intensity of the electrophoretically separated de-acetylated product and substrate peptide was measured. Activity in each sample was determined as the product to sum ratio (PSR): P/(S+P), where P is the peak height of the product peptide and S is the peak height of the substrate peptide. Percent inhibition (Pinh) is determined using the following equation: Pinh=(PSR0%−PSRinh)/(PSR0%−PSR100%)*100, where PSRinh is the product sum ratio in the presence of inhibitor, PSR0% is the average product sum ration in the absence of inhibitor and PSR 100% is the average product sum ratio in 100%-inhibition control samples. The IC50 values of inhibitors were determined by fitting the %-inhibition curves with 4 parameter dose-response model using XLfit 4 software. Ranges of IC50 values for compounds of the invention are disclosed in Table 26.

IC50, 1 to 10 µM:
O=C(/C=C/c1ccccc1Nc1nc2ccccc2[nH]1)NO [Example I-1, (E)-3-(2-((1H-benzo[d]imidazol-2-yl)amino)phenyl)-N-hydroxyacrylamide]
COCCn1c(CNc2ccccc2/C=C/C(=O)NO)nc2ccccc21 [Example I-2, (E)-N-hydroxy-3-(2-(((1-(2-methoxyethyl)-1H-benzo[d]imidazol-2-yl)methyl)amino)phenyl)acrylamide]
COCCn1c(Nc2ccccc2/C=C/C(=O)NO)nc2ccccc21 [Example I-3, (E)-N-hydroxy-3-(2-((1-(2-methoxyethyl)-1H-benzo[d]imidazol-2-yl)amino)phenyl)acrylamide]
O=C(/C=C/c1ccccc1NCc1nc2ccc(C(F)(F)F)cc2[nH]1)NO [Example I-4, (E)-N-hydroxy-3-(2-(((6-(trifluoromethyl)-1H-benzo[d]imidazol-2-yl)methyl)amino)phenyl)acrylamide]
O=C(/C=C/c1ccccc1NC(=O)Nc1cccc(C(F)(F)F)c1)NO [Example I-5, (E)-N-hydroxy-3-(2-(3-(3-(trifluoromethyl)phenyl)ureido)phenyl)acrylamide]
O=C(/C=C/c1ccccc1NC(=O)C1(O)CCC1)NO [Example I-6, (E)-1-hydroxy-N-(2-(3-(hydroxyamino)-3-oxoprop-1-en-1-yl)phenyl)cycobutane-1-carboxamide]
O=C(/C=C/c1ccccc1NS(=O)(=O)c1cccc(C(F)(F)F)c1)NO [Example I-7, (E)-N-hydroxy-3-(2-(3-(trifluoromethyl)phenylsulfonamido)phenyl)acrylamide]
NC1CCN(c2ccccc2/C=C/C(=O)NO)CC1 [Example I-8, (E)-3-(2-(4-aminopiperidin-1-yl)phenyl)-N-hydroxyacrylamide 2,2,2-trifluoroacetate]
COc1ccc(CC(=O)NC2CCN(c3ccccc3/C=C/C(=O)NO)CC2)cc1 [Example I-9, (E)-N-hydroxy-3-(2-(4-(2-(4-methoxyphenyl)acetami-do)piperidin-1-yl)phenyl)acrylamide]
O=C(/C=C/c1ccccc1N1CCC(NC(=O)COc2ccc(Cl)cc2)CC1)NO [Example I-10, (E)-3-(2-(4-(2-(4-chlorophenoxy)acetami-do)piperidin-1-yl)phenyl)-N-hydroxyacrylamide]
O=C(/C=C/c1ccccc1N1CCC(NC(=O)c2ccc3cccnc3n2)CC1)NO [Example I-11, (E)-N-(1-(2-(3-(hydroxyamino)-3-oxoprop-1-en-1-yl)phenyl)piperidin-4-yl)-1,8-naphthyridine-2-carboxamide]
CN1CC(C(=O)NC2CCN(c3ccccc3/C=C/C(=O)NO)CC2)C1 [Example I-12, (E)-N-(1-(2-(3-(hydroxyamino)-3-oxoprop-1-en-1-yl)phenyl)piperidin-4-yl)-1-methylazetidine-3-carboxamide]
O=C(/C=C/c1ccccc1N1CCC(NC(=O)Cc2ccc(Cl)cc2)CC1)NO [Example I-13, (E)-3-(2-(4-(2-(4-chlorophenyl)acetamido)piperidin-1-yl)phenyl)-N-hydroxyacrylamide]
Cc1cccc(C(=O)NC2CCN(c3ccccc3/C=C/C(=O)NO)CC2)c1 [Example I-14]
Cc1oc(-c2ccc(Cl)cc2)cc1C(=O)NC1CCN(c2ccccc2/C=C/C(=O)NO)CC1 [Example I-15]
Cc1c(C(=O)NC2CCN(c3ccccc3/C=C/C(=O)NO)CC2)cnn1-c1ccccc1 [Example I-16]
CN(C)Cc1ccccc1CNC1CCN(c2ccccc2C=CC(=O)NO)CC1 [Example I-17, (E)-3-(2-(4-((2-((dimethylamino)methyl)benzyl)amino)piperidin-1-yl)phenyl-N-hydroxyacrylamide]
CN(C)Cc1cccc(CNC2CCN(c3ccccc3/C=C/C(=O)NO)CC2)c1 [Example I-18, (E)-3-(2-(4-((3-((dimethylamino)methyl)benzyl)amino)piperidin-1-yl)phenyl)-N-hydroxyacrylamide]
O=C(/C=C/c1ccccc1N1CCN(C(=O)C2CCCO2)CC1)NO (centres unmarked) [Example I-19, (E)-N-hydroxy-3-(2-(4-(tetrahydrofuran-2-carbonyl)piperazin-1-yl)phenyl)acrylamide]
O=C(/C=C/c1ccccc1N1CCN(C(=O)C2Cc3ccccc3C2)CC1)NO [Example I-20, (E)-3-(2-(4-(2,3-dihydro-1H-indene-2-carbonyl)-piperazin-1-yl)phenyl)-N-hydroxyacrylamide]
COCC1(C(=O)N2CCN(c3ccccc3/C=C/C(=O)NO)CC2)CCC1 [Example I-21, (E)-N-hydroxy-3-(2-(4-(1-(methoxymethyl)cyclobu-tane-1-carbonyl)piperazin-1-yl)phenyl)acrylamide]
O=C(/C=C/c1ccccc1N1CCN(C(=O)c2cc3ccccn3n2)CC1)NO [Example I-22, (E)-N-hydroxy-3-(2-(4-(pyrazolo[1,5-a]pyridine-2-carbonyl)piperazin-1-yl)phenyl)acrylamide]
O=C(/C=C/c1ccccc1N1CCN(C(=O)C2CCC(F)(F)CC2)CC1)NO [Example I-23]
O=C(/C=C/c1ccccc1N1CCN(C(=O)CC23CCCN2CCC3)CC1)NO [Example I-24, (E)-N-hydroxy-3-(2-(4-(2-(tetrahydro-1H-pyrrolizin-7a(5H)-yl)acetyl)piperazin-1-yl)phenyl)acrylamide]
O=C(/C=C/c1ccccc1N1CCN(C(=O)c2cc3ccccc3[nH]2)CC1)NO [Example I-25, (E)-3-(2-(4-(1H-indole-2-carbonyl)piperazin-1-yl)phenyl)-N-hydroxyacrylamide]
CC(C)S(=O)(=O)NC1CCN(c2ccccc2/C=C/C(=O)NO)CC1 [Example I-26]
O=C(/C=C/c1ccccc1N1CCC(NS(=O)(=O)C2CCCC2)CC1)NO [Example I-27, (E)-3-(2-(4-(cyclopentanesulfonamido)piperidin-1-yl)phenyl)-N-hydroxyacrylamide]
O=C(/C=C/c1ccccc1N1CCN(S(=O)(=O)c2ccc3c(c2)OCCO3)CC1)NO [Example I-28, (E)-3-(2-(4-((2,3-dihydrobenzo[b][1,4]di-oxin-6-yl)sulfonyl)piperazin-1-yl)phenyl)-N-hydroxyacrylamide]
O=C(/C=C/c1ccccc1N1CCN(S(=O)(=O)c2ccccc2OC(F)(F)F)CC1)NO [Example I-29, (E)-N-hydroxy-3-(2-(4-((2-(trifluoromethoxy)phenyl)sulfonyl)piperazin-1-yl)phenyl)acrylamide]
O=C(/C=C/c1ccccc1N1CCN(S(=O)(=O)c2ccc(OC(F)F)cc2)CC1)NO [Example I-30, (E)-3-(2-(4-((4-(difluoromethoxy)phenyl)sulfonyl)piperazin-1-yl)phenyl)-N-hydroxyacrylamide]
COc1ccccc1S(=O)(=O)N1CCN(c2ccccc2/C=C/C(=O)NO)CC1 [Example I-31, (E)-N-hydroxy-3-(2-(4-((2-methoxyphenyl)sulfonyl)piperazin-1-yl)phenyl)acrylamide]
O=C(/C=C/c1ccccc1N1CCN(S(=O)(=O)c2ccc(CNC(=O)c3ccccc3)s2)CC1)NO [Example I-32, (E)-N-((5-((4-(2-(3-(hydroxyamino)-3-oxoprop-1-en-1-yl)phenyl)piperazin-1-yl)sulfonyl)thiophen-2-yl)methyl)benzamide]
Cc1c(S(=O)(=O)N2CCN(c3ccccc3/C=C/C(=O)NO)CC2)sc2ccc(Cl)cc12 [Example I-33, (E)-3-(2-(4-((5-chloro-3-methylbenzo[b]thiophen-2-yl)sulfonyl)piperazin-1-yl)phenyl)-N-hydroxyacrylamide]
COc1ccc(OC)c(S(=O)(=O)N2CCN(c3ccccc3/C=C/C(=O)NO)CC2)c1 [Example I-34]
O=C(/C=C/c1ccccc1N1CCN(C(=O)C2(c3cnccn3)CC2)CC1)NO [Example I-35, (2E)-N-hydroxy-3-(2-{4-[1-(pyrazin-2-yl)cyclopropanecarbonyl]piperazin-1-yl}phenyl)prop-2-enamide]
